Assay results taken from article PMC12169847, “Targeted protein degradation by KLHDC2 ligands identified by high-throughput screening” (eLife, 2025).
Where “and” joins values, the source holds several entries; their conditions need not be identical. Equal values may be shown once. Read-outs that look alike come from different tables or passages of the source.

Key:
[1] = target: T1, KEAP1 Kelch domain (Homo sapiens, UniProt Q14145); test: Fluorescence polarization counter-screen, KEAP1 with TAMRA-NRF2 peptide; assay type: binding; settings: for inhibitory effect in the KEAP1 counter-screening assay: concentrations less than 20 µM; for Fluorescence polarization signal: KEAP1, replicate wells
T1 construct: HIS6 (N); made in house; host or cells: Escherichia coli BL21(DE3)

[2] = target: T2, BRD4 (Homo sapiens, UniProt O60885); test: Cell-based HiBiT BRD4 degradation assay in HEK293T; set-up: expressed in transfected cells; host or cells: HEK293T; settings: for Relative BRD4 levels (HiBiT luminescence): replicate wells; for DC50: BRD4-HiBiT, HEK293T;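 for all read-outs here: HEK293T cells transiently expressing HiBiT-tagged BRD4, exposed to serially diluted compounds, then lysed for a luminescence read-out that tracks the amount of cellular BRD4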
[3] = target: T2, BRD4; test: Cell-based endogenous BRD4 degradation assay (western blot) in SK-BR-3; set-up: expressed in transfected cells
Method: SK-BR-3 cells (0.25×10^6 cells/well, 2 mL) were seeded in six-well polystyrene plates for 24 hr before the compounds were added at the indicated doses as DMSO solutions. The protease inhibitor MG132 (Selleck Chemicals) was added to the sixth well along with 10 μM 3d at a concentration of 10 μM. The plate was incubated at 37°C for 24 hr, and the cells from each well were collected and lysed in RIPA buffer (Thermo Fisher 89900) with Halt protease and phosphatase inhibitor cocktail (Thermo Fisher 78440). The cellular content was extracted on ice for 20 min, and the protein concentration was determined by BCA assay (Thermo Fisher 23327). 2 μg of each sample was resolved via SDS-PAGE gels, and western blotting was used to visualize the endogenous BRD4 level (BRD4 primary antibody Abcam plc, Ab128874, RRID:AB_11145462, 1:10,000 dilution) with Bio-Rad Gel Doc XR+ imaging system.

T1 sequence (Q14145 321-609 limits assumed): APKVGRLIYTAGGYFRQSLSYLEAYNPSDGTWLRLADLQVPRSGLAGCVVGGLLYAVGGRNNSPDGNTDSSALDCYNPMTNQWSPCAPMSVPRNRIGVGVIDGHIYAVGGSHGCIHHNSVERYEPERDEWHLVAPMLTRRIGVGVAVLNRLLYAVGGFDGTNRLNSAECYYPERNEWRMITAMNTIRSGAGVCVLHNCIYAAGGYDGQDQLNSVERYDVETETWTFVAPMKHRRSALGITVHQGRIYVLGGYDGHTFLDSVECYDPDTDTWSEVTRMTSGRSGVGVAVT

| SMILES | inhibitory effect in the KEAP1 counter-screening assay [1] | Relative BRD4 levels (HiBiT luminescence) ([2]; 4 hr, 0.338702 nM) | Relative BRD4 levels (HiBiT luminescence) ([2]; 4 hr, 1.01611 nM) | Relative BRD4 levels (HiBiT luminescence) ([2]; 4 hr, 3.04832 nM) | Relative BRD4 levels (HiBiT luminescence) ([2]; 4 hr, 9.14495 nM) | Relative BRD4 levels (HiBiT luminescence) ([2]; 4 hr, 27.4348 nM) | Relative BRD4 levels (HiBiT luminescence) ([2]; 4 hr, 82.3045 nM) | Relative BRD4 levels (HiBiT luminescence) ([2]; 4 hr, 246.914 nM) | Relative BRD4 levels (HiBiT luminescence) ([2]; 4 hr, 740.741 nM) | Relative BRD4 levels (HiBiT luminescence) ([2]; 4 hr, 2222.22 nM) | Relative BRD4 levels (HiBiT luminescence) ([2]; 4 hr, 6666.67 nM) | Relative BRD4 levels (HiBiT luminescence) ([2]; 4 hr, 20000 nM) | Relative BRD4 levels (HiBiT luminescence) ([2]; 24 hr, 0.338702 nM) | Relative BRD4 levels (HiBiT luminescence) ([2]; 24 hr, 1.01611 nM) | Relative BRD4 levels (HiBiT luminescence) ([2]; 24 hr, 3.04832 nM) | Relative BRD4 levels (HiBiT luminescence) ([2]; 24 hr, 9.14495 nM) | Relative BRD4 levels (HiBiT luminescence) ([2]; 24 hr, 27.4348 nM) | Relative BRD4 levels (HiBiT luminescence) ([2]; 24 hr, 82.3045 nM) | DC50 ([2]; 4 hr, read-out: DC50 (4 hr)) | DC50 ([2]; 24 hr, read-out: DC50 (24 hr)) [nM] | also measured |
| --- | --- | --- | --- | --- | --- | --- | --- | --- | --- | --- | --- | --- | --- | --- | --- | --- | --- | --- | --- | --- | --- |
| Cc1cc(NS(=O)(=O)c2ccc(Nc3nc(-c4c(C)nc5ccccn45)cs3)cc2)no1 [compound 3] | did not have an inhibitory effect | – | – | – | – | – | – | – | – | – | – | – | – | – | – | – | – | – | – | – | – |
| Cc1ccn2c(-c3csc(Nc4ccc(S(=O)(=O)Nc5cc(C)on5)cc4)n3)c(C)nc2c1 [compound 4] | did not have an inhibitory effect | – | – | – | – | – | – | – | – | – | – | – | – | – | – | – | – | – | – | – | – |
| O=C(O)c1cc(Cl)cc2c1NC(c1cccc(OC(F)(F)F)c1)C1C3CCC(C3)C21 (stereo not shown) [compound 6] | no inhibitory effect | – | – | – | – | – | – | – | – | – | – | – | – | – | – | – | – | – | – | – | Fluorescence polarization signal ([1]; 0.169351 nM): 16 and 15 and 25; Fluorescence polarization signal ([1]; 0.508053 nM): 18 and 23 and 21; Fluorescence polarization signal ([1]; 1.52416 nM): 13 and 22 and 29; Fluorescence polarization signal ([1]; 4.57247 nM): 22 and 15 and 21; Fluorescence polarization signal ([1]; 13.7174 nM): 20 and 23 and 18; Fluorescence polarization signal ([1]; 41.1523 nM): 29 and 24 and 17; Fluorescence polarization signal ([1]; 123.457 nM): 18 and 24 and 30; Fluorescence polarization signal ([1]; 370.37 nM): 25 and 12 and 20; Fluorescence polarization signal ([1]; 1111.11 nM): 21 and 16 and 26; Fluorescence polarization signal ([1]; 3333.33 nM): 15 and 23 and 32; Fluorescence polarization signal ([1]; 10000 nM): 23 and 26 and 17; EC50 ([1]; in figure): > 20000 nM |
| COC(=O)c1cc(Cl)cc2c1NC(c1cccc(OCCOCCOCCNC(=O)CC3N=C(c4ccc(Cl)cc4)c4c(sc(C)c4C)-n4c(C)nnc43)c1)C1C3CCC(C3)C21 [compound 7, Methyl 2-chloro-6-(3-(2-(2-(2-(2-((S)-4-(4-chlorophenyl)–2,3,9-trimethyl-6H-thieno[3,2 f][1,2,4]triazolo[4,3 a][1,4]diazepin-6-yl)acetamido)ethoxy)ethoxy)ethoxy)phenyl)-5,6,6a,7,8,9,10,10a-octahydro-7,10-methanophenanthridine-4-carboxylate] | – | 1.014 and 0.8842 and 1.103 | 0.9863 and 1.241 and 1.012 | 0.8761 and 0.9572 and 0.9491 | 0.9491 and 0.7788 and 0.8761 | 0.9248 and 1.014 and 0.9978 | 0.9816 and 0.9329 and 0.9248 | 0.9653 and 0.868 and 0.941 | 0.7544 and 0.7706 and 0.8518 | 0.7382 and 0.5841 and 0.7139 | 0.3732 and 0.3975 and 0.4462 | 0.3569 and 0.3164 and 0.3326 | 1.478 and 0.7263 and 0.7659 | 0.6909 and 0.8141 and 0.7927 | 0.6888 and 0.7059 and 0.7509 | 0.6963 and 0.9298 and 0.7745 | 0.7895 and 0.7691 and 1.0519 | 0.858 and 0.8752 and 0.9459 | 2600 nM and 2630 nM | 4000 | Relative BRD4 levels (HiBiT luminescence) ([2]; 24 hr, 246.914 nM): 0.8891 and 0.8666 and 0.9223; Relative BRD4 levels (HiBiT luminescence) ([2]; 24 hr, 740.741 nM): 1.234 and 1.1783 and 1.43; Relative BRD4 levels (HiBiT luminescence) ([2]; 24 hr, 2222.22 nM): 0.8473 and 0.8591 and 0.9544; Relative BRD4 levels (HiBiT luminescence) ([2]; 24 hr, 6666.67 nM): 0.1778 and 0.1692 and 0.1789; Relative BRD4 levels (HiBiT luminescence) ([2]; 24 hr, 20000 nM): 0.1875 and 0.1318 and 0.1307 |
| COC(=O)c1cc(Cl)cc2c1NC(c1cccc(OCCC3CCN(CC4CCN(C(=O)CC5N=C(c6ccc(Cl)cc6)c6c(sc(C)c6C)-n6c(C)nnc65)CC4)CC3)c1)C1C3CCC(C3)C21 [compound 8, Methyl 2-chloro-6-(3-(2-(1-((1-(2-((S)–4-(4-chlorophenyl)-2,3,9-trimethyl-6H-thieno[3,2 f][1,2,4]triazolo[4,3 a][1,4]diazepin-6-yl)acetyl)piperidin-4-yl)methyl)piperidin-4-yl)ethoxy)phenyl)-5,6,6a,7,8,9,10,10a-octahydro-7,10-methanophenanthridine-4-carboxylate] | – | 0.9416 and 0.7691 and 0.8677 | 1.421 and 0.6823 and 1.057 | 0.9694 and 0.7305 and 0.8098 | 0.8569 and 0.4906 and 0.8452 | 0.6224 and 0.978 and 0.6213 | 0.6909 and 0.6031 and 0.4253 | 0.2967 and 0.3567 and 0.4735 | 0.2624 and 0.2035 and 0.2314 | 0.1885 and 0.1435 and 0.2046 | 0.1767 and 0.1639 and 0.1864 | 0.2282 and 0.2025 and 0.226 | 0.9416 and 0.7691 and 0.8677 | 1.421 and 0.6823 and 1.057 | 0.9694 and 0.7305 and 0.8098 | 0.8569 and 0.4906 and 0.8452 | 0.6224 and 0.978 and 0.6213 | 0.6909 and 0.6031 and 0.4253 | 164 nM | 80 | endogenous BRD4 protein degraded ([3]; SK-BR-3, 100 nM, 24 hr): more than 60%; endogenous BRD4 degradation (maximal) ([3]; SK-BR-3, 10 µM, 24 hr): 94%; BRD4 remaining ([3]; SK-BR-3, 10 µM, DMSO condition, 24 hr): 4%; BRD4 remaining ([3]; SK-BR-3, 10 µM, co-treated with MG-132, 24 hr): 29%; Relative BRD4 levels (HiBiT luminescence) ([2]; 24 hr, 246.914 nM): 0.2967 and 0.3567 and 0.4735; Relative BRD4 levels (HiBiT luminescence) ([2]; 24 hr, 740.741 nM): 0.2624 and 0.2035 and 0.2314; Relative BRD4 levels (HiBiT luminescence) ([2]; 24 hr, 2222.22 nM): 0.1885 and 0.1435 and 0.2046; Relative BRD4 levels (HiBiT luminescence) ([2]; 24 hr, 6666.67 nM): 0.1767 and 0.1639 and 0.1864; Relative BRD4 levels (HiBiT luminescence) ([2]; 24 hr, 20000 nM): 0.2282 and 0.2025 and 0.226 |
| COC(=O)c1cc(Cl)cc2c1NC(c1cccc(OCc3ccc(-c4ccc(NC(=O)C[C@@H]5N=C(c6ccc(Cl)cc6)c6c(sc(C)c6C)-n6c(C)nnc65)cc4)cc3)c1)C1C3CCC(C3)C21 (stereo partly drawn) [compound 9, Methyl 2-chloro-6-(3-((4'-(2-((S)-4-(4-chlorophenyl)-2,3,9-trimethyl-6H-thieno[3,2 f][1,2,4]triazolo[4,3 a][1,4]diazepin-6-yl)acetamido)-[1,1'-biphenyl]-4-yl)methoxy)phenyl)--5,6,6a,7,8,9,10,10a-octahydro-7,10-methanophenanthridine-4-carboxylate] | – | – | – | – | – | – | – | – | – | – | – | – | – | – | – | – | – | – | > 20000 nM | > 20000 | BRD4 degradation ([2]; any concentration (<20 µM), 4 or 24 hr): did not promote BRD4 degradation |
